For 6 compounds, IC50 and MNT results are on record in US20230271956A1, “AMIDE DERIVATIVES” (Merck Patent GmbH, priority 2020, published 2023).

One data set has as its target T1, human rec ACSS2 (Homo sapiens, UniProt Q9NR19).
T1 construct: myc (C); purchased Origene
In words: Biochemical activity ACSS2 assay (AMP-Glo). Conditions: human recombinant ACSS2, AMP-Glo, 180 min at 37° C. In a few lines:
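C-terminal myc-tagged human recombinant ACSS2 (1 nM) reacted with 100 µM ATP, 100 µM CoA and 500 µM acetate (final) in pH 7.5 Hepes buffer for 180 min at 37° C, compound in 10 concentrations from 30 µM. Released AMP detected by AMP-Glo luminescence. IC50 normalised to inhibitor-free reaction and 5 µM reference inhibitor.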

The subject of another data set is CHO-K1 cells. In words: Micronucleus assay (MNT) in vitro. On the set-up: key: A: negative, putative negative (micronuclei detected beyond threshold of 60% cyctotoxicity); B: positive. Conditions: 24 hrs treatment, 0.2 µM to 100 µM. The format is cell-based. As to the method:
The in vitro MNT assay is performed in CHO-K1 cells due to their stable and welI-characterized karyotype, high sensitivity and suitability for a high content imaging approach. They have a basal spontaneous micronucleus frequency of 3-4%.
24 hrs after plating CHO-K1 cells are treated with test compounds for 24 hrs (in duplicates; fixed concentration ranges from 0.2 µM to 100 µM in 2-fold dilution steps). After a medium change cells are incubated for 24 hrs with Cytochalasin B to block cytokinesis and are then fixed and nuclei / micronuclei visualized with a DNA stain. Images are acquired with the Molecular Devices high content imagers IXU or IXM and are analyzed with the dedicated MetaXpress software micronucleus module. Criteria for scoring of micronuclei (MN) are the following: • diameter of the MN should be less than ⅓ of the main nucleus • MN should be separated from or marginally overlap with main nucleus (= no blebs) • MN should have similar staining as the main nucleus At least 1000 binucleated cells are evaluated per treatment replicate. Mitomycin C is used as reference stimulator of micronucleus formation. Cytotoxicity is evaluated in parallel and defined by comparing total nuclei count in compound-treated samples to neutral control samples treated with vehicle only (1% DMSO) (100% cytotoxicity means all cells are dead or lost).
A test compound is regarded as POSITIVE if generation of micronuclei and exhibition of less than 60% cytotoxicity at the same concentration can be observed.
Compounds are scored only in the soluble concentration range. Experimental data of the compounds shown in Table 1 in the MNT assay are shown in Table 2 below and classified in the following groups: […]

The target in another data set is T2, ACSS2 (Homo sapiens, UniProt Q9NR19).
T2 construct: endogenous fatty acid synthesis activity in the human HCT-15 cancer cell line; endogenous in cells; host or cells: HCT-15
T2 sequence (Q9NR19 whole entry): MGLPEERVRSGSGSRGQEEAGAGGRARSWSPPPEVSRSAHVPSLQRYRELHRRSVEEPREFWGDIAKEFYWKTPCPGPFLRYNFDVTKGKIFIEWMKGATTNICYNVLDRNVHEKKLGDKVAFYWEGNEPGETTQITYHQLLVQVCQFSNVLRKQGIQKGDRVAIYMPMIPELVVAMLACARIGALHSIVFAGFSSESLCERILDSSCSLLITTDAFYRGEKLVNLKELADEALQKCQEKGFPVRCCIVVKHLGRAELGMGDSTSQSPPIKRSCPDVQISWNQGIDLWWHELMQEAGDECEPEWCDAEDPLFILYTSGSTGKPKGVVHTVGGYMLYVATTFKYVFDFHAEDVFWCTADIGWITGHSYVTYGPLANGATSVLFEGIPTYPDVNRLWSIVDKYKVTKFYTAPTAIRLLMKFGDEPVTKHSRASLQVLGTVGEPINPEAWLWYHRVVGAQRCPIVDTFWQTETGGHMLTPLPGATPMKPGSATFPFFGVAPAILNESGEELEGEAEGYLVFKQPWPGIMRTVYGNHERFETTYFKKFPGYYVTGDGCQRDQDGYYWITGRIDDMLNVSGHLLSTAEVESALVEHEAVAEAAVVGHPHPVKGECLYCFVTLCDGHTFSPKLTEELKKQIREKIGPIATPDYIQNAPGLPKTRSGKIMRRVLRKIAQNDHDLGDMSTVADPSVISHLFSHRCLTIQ
In words: Cellular assay of 14C acetate incorporation into histones (IC50 ACSS2 cellular histone). The format is cell-based. Particulars: HCT-15 cells. In a few lines: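 Human HCT-15 cells preincubated 1 h with compound (0.25% DMSO final), then pulsed 3 h with 14C-acetate. Histones were acid-extracted (0.2 M HCl, overnight, 4° C) after Triton lysis in sodium-butyrate buffer; incorporated 14C counted by liquid scintillation (CPM) to give IC50.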

T1 sequence (Q9NR19 whole entry): as above

Regarding `CCc1c(C(O)(c2ccccc2)c2ccn(C)n2)nc2cc(OC)c(C(=O)Nc3ncn(CC)n3)cn12` (single isomer, unassigned) [Compound 21, 3-Ethyl-2-[hydroxy-(1-methyl-1H-pyrazol-3-yl)-phenyl-methyl]-7-methoxy-imidazo[1,2-a]pyridine-6-carboxylic acid (1-ethyl-1H-[1,2,4]triazol-3-yl)-amide], the half-maximal inhibitory concentration (IC50) on human rec ACSS2 lay in the range of 100 to 10000 nM. In addition, the MNT entry in the data set on CHO-K1 cells is “A”.
Consider `CCc1c(C(O)(c2ccccc2F)c2ccccc2F)nn2cc(OC)c(C(=O)Nc3ncn(CC)n3)cc12` [Compound 7, 2-[Bis-(2-fluoro-phenyl)-hydroxy-methyl]-3-ethyl-6-methoxy-pyrazolo[1,5-a]pyridine-5-carboxylic acid (1-ethyl-1H-[1,2,4]triazol-3-yl)-amide], for which the IC50 on human rec ACSS2 and at ACSS2 was 1 to 10 nM throughout. The MNT entry with CHO-K1 cells is “A”.
Take `CCc1c(C(O)(c2ccccc2)c2ccn(C)n2)nc2cc(OC)c(C(=O)Nc3ncn(CC)n3)cn12` (single isomer, unassigned) [Compound 22, 3-Ethyl-2-[hydroxy-(1-methyl-1H-pyrazol-3-yl)-phenyl-methyl]-7-methoxy-imidazo[1,2-a]pyridine-6-carboxylic acid (1-ethyl-1H-[1,2,4]triazol-3-yl)-amide]: the IC50 at human rec ACSS2 and against ACSS2 was 10 to 100 nM in each case. Moreover, the MNT result in the data set with CHO-K1 cells is “A”.
As for `CCc1c(C(O)(c2ccccc2F)c2ccccc2F)nc2cc(Cl)c(C(=O)Nc3cnn(CC)c3)cn12` [Compound 29, 2-[Bis-(2-fluoro-phenyl)-hydroxy-methyl]-7-chloro-3-ethyl-imidazo[1,2-a]pyridine-6-carboxylic acid (1-ethyl-1H-pyrazol-4-yl)-amide], the IC50 on human rec ACSS2 and at ACSS2 was 10 to 100 nM throughout. Besides, in the data set on CHO-K1 cells, the MNT entry is reported as “A”.
On to `CCc1c(C(O)(c2ccccc2)c2ccccn2)nc2cc(OC)c(C(=O)Nc3ncn(CC)n3)cn12` (single isomer, unassigned) [Compound 18, 3-ethyl-N-(1-ethyl-1,2,4-triazol-3-yl)-2-[hydroxy-phenyl-(2-pyridyl)methyl]-7-methoxy-imidazo[1,2-a]pyridine-6-carboxamide], for which the IC50 on human rec ACSS2 and against ACSS2 was 100 to 10000 nM throughout. The MNT result with CHO-K1 cells is recorded as “A”.
As to `CCc1c(C(O)(c2ccccc2)c2ccccc2)nc2cc(F)c(C(=O)Nc3cnn(CC)c3)cn12` [Compound 15, 3-Ethyl-7-fluoro-2-(hydroxy-diphenylmethyl)-imidazo[1,2-a]pyridine-6-carboxylic acid (1-ethyl-1H-pyrazol-4-yl)-amide], the IC50 at human rec ACSS2 and against ACSS2 was 10 to 100 nM in each case. Moreover, in the data set with CHO-K1 cells, the MNT result was “A”.

The IC50 is the concentration at which inhibition is half-maximal.
